Here are results for eight compounds from US10420812B2, “Drug combinations and uses in treating a coughing condition” (Infirst Healthcare Limited, priority 2009, dated 2019).

Several values for one entry are separate records, joined by “and”; a condition that tells them apart may be missing. Equal values may be shown once.

The test system of test [1] is citric acid induced cough responses. Kind of test: Citric acid induced cough, theobromine and neuropathic pain agent (Example 9).
The subject of test [2] is citric acid induced cough. As to conditions: guinea-pigs (Minamizawa et al. 2006); cited from earlier work.
The test system of test [3] is cough. As to conditions: clinical treatment; apparent success attributed to placebo effect (Ramsey et al.); cited from earlier work.
Test [4] relates to citric acid induced cough responses. Kind of test: Citric acid induced cough, theobromine and NSAID (Example 8).
Test [5] shares this test system. The experiment in a line: Citric acid induced cough, theobromine and ACE inhibitor (Example 11).
For test [6] the test system is unchanged. Kind of test: Citric acid induced cough, theobromine and non-opiate antitussive agent (Example 3).
For test [7] the test system is unchanged. Kind of test: Citric acid induced cough, theobromine and antihistamine (Example 6).
Test [8] shares this test system. Kind of test: Citric acid induced cough, theobromine and opiate antitussive agent (Example 4). In kind it is in vivo, guinea pig.
Test [9] has the same test system. Kind of test: Citric acid induced cough, oral and intratracheal theobromine (Example 2). The conditions noted are these: 30 min prior.
For test [10] the test system is unchanged. The experiment in a line: Citric acid induced cough, theobromine and decongestant (Example 5). In kind it is in vivo, guinea pig.
For test [11] the test system is unchanged. Kind of test: Citric acid induced cough, theobromine and terpene (Example 10).
Test [12] deals with coughing condition. Kind of test: Treatment of a coughing condition, patient cases (Example 12). The conditions noted are these: person, after about 2 days. Type of test: in vivo, human.
Test [13] deals with citric acid induced cough responses. The experiment in a line: Citric acid induced cough, oral theobromine (Example 1). In kind it is in vivo, guinea pig. The conditions noted are these: 120 min prior to citric acid exposure.
Test [14] has the same test system. Kind of test: Citric acid induced cough, theobromine and expectorant (Example 7).
Setting [15] is: gabapentin 60 mg/kg p.o. only, 60 min prior.
Setting [16] is: ibuprofen 30 mg/kg p.o. only, 60 min prior.
[17] abbreviates: captopril 30 mg/kg p.o., 120 min prior.
The mark [18] stands for this setting: codeine 25 mg/kg i.p., 30 min prior.
The mark [19] stands for this setting: theobromine 10 mg/kg p.o., 120 min prior.
[20] abbreviates: theobromine 7 mg/kg p.o., 120 min prior.
Setting [21] is: theobromine 30 mg/kg p.o., 120 min prior.
Setting [22] is: theobromine 10 mg/kg p.o., 30 min prior.
The mark [23] stands for this setting: guaifenesin 30 mg/kg p.o., 60 min prior.

Consider `NCC1(CC(=O)O)CCCCC1` [Gabapentin], for which, in test [1] (setting [15]), the “onset time to the first cough” value was 90 ± 6 s and the “total number of coughs” value was found to be 24±8 coughs.
For the compound `CN[C@@H](C)[C@@H](O)c1ccccc1` [pseudoephedrine], the “efficacy in the citric acid induced cough model” value in [2] is reported as “very limited efficacy”.
For `COc1ccc2c(c1)[C@]13CCCC[C@@H]1[C@H](C2)N(C)CC3` [Dextromethorphan], in test [3], the “efficacy in treating cough” value is given as “no efficacy”.
On to `CC(C)Cc1ccc(C(C)C(=O)O)cc1` (stereo not drawn) [Ibuprofen], for which, in test [4] (setting [16]), the “onset time to the first cough” value came out at 70 ± 5 s and the “total number of coughs” value was 22±6 coughs.
For the compound `C[C@H](CS)C(=O)N1CCC[C@H]1C(=O)O` [captopril], in test [5] (setting [17]), the “onset time to the first cough” value came out at 34 ± 12 s and the “total number of coughs” value is recorded as 45±12 coughs.
Regarding `COc1ccc2c3c1O[C@H]1[C@@H](O)C=C[C@H]4[C@@H](C2)N(C)CC[C@@]341` [codeine], the “Cough Events Mean Number” value is given as 7 ± 2 coughs in test [6] (setting [18]); 5 ± 1 coughs in [7] (setting [18]); 6 ± 1 coughs in test [8] (setting [18]); 5 ± 1 coughs in test [9] (codeine 25 mg/kg i.p.); 6 ± 1 coughs in [10] (setting [18]). The “Cough Events Mean Onset Time” value worked out at 170 ± 32 s in test [6] (setting [18]); 236 ± 22 s in test [7] (setting [18]); 195 ± 33 s in [8] (setting [18]); 337 ± 51 s in test [9] (codeine 25 mg/kg i.p.); 195 ± 25 s in test [10] (setting [18]). In addition, the “number of citric acid induced coughs” value in test [4] (setting [18]) came out at 8±3 coughs; in test [1] (setting [18]), 9±4 coughs; in test [5] (setting [18]) it was 7±3 coughs; in [11] (setting [18]) it was 6±2 coughs. Also, the “onset time to the first cough” value turned out to be 150 ± 32 s in test [4] (setting [18]), 161 ± 31 s in test [1] (setting [18]), 170 ± 28 s in [5] (setting [18]) and 170 ± 28 s in [11] (setting [18]).
`Cn1cnc2c1c(=O)[nH]c(=O)n2C` [theobromine, 3,7-dihydro-3,7-dimethyl-1H-purine-2,6-dione]: the “coughing episodes as indicated by patient” value is “decreased coughing episodes” in test [12] (cough as side-effect of ACE inhibitor medication, theobromine in conjunction with the ACE inhibitor) and “decreased coughing episodes” in [12] (cough due to angiotensin II receptor antagonist medication, theobromine in conjunction with it). Besides, the “Cough Events Mean Number” value in test [6] (setting [19]) is 13 ± 2 coughs; in test [7] (setting [19]), 15 ± 2 coughs; in [8] (setting [20]) it was 19 ± 3 coughs; in [9] (theobromine 3 mg/kg i.t.) it was 17 ± 2 coughs; in [9] (theobromine 10 mg/kg i.t.), 10.3±2 coughs and 10 ± 2 coughs; in [9] (theobromine 30 mg/kg i.t.) it was 6 ± 1 coughs. The “Cough Events Mean Number” value came to 12 ± 2 coughs in test [9] (theobromine 30 mg/kg p.o.); 25 ± 4 coughs in test [13] (theobromine 3 mg/kg p.o.); 18 ± 3 coughs in [13] (theobromine 7 mg/kg p.o.); 13 ± 3 coughs in test [10] (setting [19]); 15 ± 3 coughs in test [14] (setting [22]). For the same compound, the “Cough Events Mean Onset Time” value was 139 ± 22 s in test [6] (setting [19]); 103 ± 15 s in [7] (setting [19]); 91 ± 13 s in test [8] (setting [20]); 115 ± 29 s in [9] (theobromine 3 mg/kg i.t.); 134 ± 18 s in test [9] (theobromine 10 mg/kg i.t.); 210 ± 22 s in [9] (theobromine 30 mg/kg i.t.). Also, the “Cough Events Mean Onset Time” value in [9] (theobromine 30 mg/kg p.o.) worked out at 126 ± 20 s; in [13] (theobromine 3 mg/kg p.o.) it was 73 ± 17 s; in [13] (theobromine 7 mg/kg p.o.) it was 98 ± 36 s; in test [10] (setting [19]), 156 ± 15 s; in [14] (setting [22]), 126 ± 12 s. For the same compound, the “number of citric acid induced coughs” value came to 15±3 coughs in test [4] (setting [19]), 14±4 coughs in [1] (setting [19]), 10±4 coughs in test [5] (setting [21]) and 14±5 coughs in [11] (setting [19]). Besides, the “onset time to the first cough” value worked out at 113 ± 15 s in test [4] (setting [19]), 108 ± 19 s in [1] (setting [19]), 125 ± 22 s in test [5] (setting [21]) and 120 ± 23 s in test [11] (setting [19]).
On to `COc1ccccc1OCC(O)CO` (stereo not drawn) [guaifenesin], for which, in [14] (setting [23]), the “Cough Events Mean Number” value is on record as 28 ± 3 coughs and the “Cough Events Mean Onset Time” value came to 52 ± 10 s.
